One data set concerns the target Wee1 protein (Homo sapiens (Human), UniProt P30291). The data set can be described thus: TR-FRET binding of compound to Wee1 protein and Tracer 178. Particulars: Tracer 178, read-out: IC50, inhibitory activity against Wee1 kinase. The protocol: First, solutions of the compounds in different concentration gradients were prepared. The compounds were dissolved in DMSO and the compounds were diluted 4 folds with a total of 10 dose points and 2 parallel replicates for each concentration.
The IC50 for inhibition of enzyme activity by the compounds was then calculated using GraphPad Prism 6 and fitted with a log (inhibitor) vs. response-Variable slope mode. The fitting equation was: Y=Bottom+(Top−Bottom)/(1+10^((Log IC50−X)*HillSlope)), where Y represents the percentage of residual enzyme activity known and X represents the known concentration of compound after the logarithm.
For orientation: Time-resolved FRET reads energy transfer from a long-lived donor to a nearby acceptor.

The next data set relates to BxPC3 cells. The data set can be described thus: Cell Titer-Glo anti-proliferation, BxPC3 cells. The class given is cell-based, human. The following applies: 3 days, read-out: Anti-proliferative activity BxPC3 (IC50 class). The method, boiled down: (§1)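 Each line was exposed to graded compound concentrations for 3 days at 37 °C, 5% CO2, with final DMSO at 0.2%. Viability was measured by Cell Titer-Glo luminescence, with untreated cells as the maximum and medium as the minimum signal. IC50 came from a variable-slope log(inhibitor)-response fit.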
(In ATP-based viability assays light output follows the ATP content of the culture.)

A further data set concerns HT-29 cells. The data set can be described thus: Cell Titer-Glo anti-proliferation, HT-29 cells. The class given is cell-based, human. The following applies: 3 days, read-out: Anti-proliferative activity HT-29 (IC50 class). The method, boiled down:
as §1

The test system of the next data set is OVCAR-3 cells. The data set can be described thus: Cell Titer-Glo anti-proliferation, OVCAR-3 cells. The class given is cell-based. The following applies: 3 days, read-out: Anti-proliferative activity OVCAR-3 (IC50 class). The essentials:
as §1

Another data set concerns HUVEC cells. The data set can be described thus: Cell Titer-Glo anti-proliferation, normal cells HUVEC. The class given is cell-based. The protocol:
(§2) Compound solutions of different concentration gradients were prepared. […] The cell growth group without compound was used as a positive control (maximum signal control) and the medium was used as a negative control (minimum signal control), while ensuring that the final level of DMSO in each reaction well was 0.2%. After removing the medium from the 384-well plate, 25 μl of the configured compound at different concentrations was transferred into the well plate and the compound and cells were incubated in the cell incubator at 37° C. with 5% CO2 for 3 days.
(§3) The 384-well plates were removed from the cell incubator and allowed to equilibrate for 1 h to room temperature. 25 μl of Cell Titer-Glo assay was added to each well, lysed on a shaker for 2 min and then read out (Luminescence) using a BMG PHERAStar after 10 min incubation. Calculate the inhibition rate from the luminescence signal.
(§4) to calculate the rate of inhibition of the cells by different concentrations of the compounds. The IC50 of the compound on cell activity inhibition was calculated by fitting a log(inhibitor) vs. response-Variable slope model to GraphPad Prism 6. The fitted equation was: Y=Bottom+(Top-Bottom)/(1+10^((Log IC50−X)*HillSlope)), where Y represents the rate of inhibition and X represents the concentration of the known compound after Log.
(§5) B. Evaluation of the Anti-Proliferative Effect of Compounds by the Cell Titer-Glo Method on Normal Cells HUVEC and HK2.
(§6) The test method is the same as the anti-proliferative activity evaluation of tumor cells.

The next data set relates to HK2 cells. The data set can be described thus: Cell Titer-Glo anti-proliferation, normal cells HK2. The class given is cell-based. The protocol: as §2, §3, §4, §5, §6
Data set [1] is described as follows: Metabolic stability in liver microsomes, mouse. Type of data set: in vitro ADME. The protocol:
(§7) Test Example 3: Evaluation of the Metabolic Stability of Liver Microsomes (Mouse and Human) In Vitro Microsomes were taken out from the −80° C. refrigerator, rapidly melted in a 37° C. water bath and placed on ice until ready to use. The test article was diluted with DMSO to prepare a 10 mM stock solution, and then diluted with acetonitrile to a 0.5 mM secondary stock solution. […] NADPH was diluted with Buffer C to a working solution of 6 mM for the starter solution. An acetonitrile solution containing an internal standard was prepared as the precipitant, and Verapamil-HCl was chosen as the internal standard at a concentration of 4 ng/ml. […] A separate plate with pointed bottom wells, noted as a precipitation plate, was added with 135 μL precipitant per well; 0 h samples were transferred to the plate after 10 min incubation and 15 μL of starter solution was added; the plate was placed on ice before centrifugation. The diluted starter solution was added in sufficient quantity to the dispensing plate to facilitate the multichannel pipette aspiration operation. The reaction was carried out on a warm incubation shaker and 15 μL of starter solution/sample is added to the plate using a multichannel pipette. The reaction was mixed with a slight shake to initiate the reaction, which was accurately timed and recorded using a timer; After the reaction time had elapsed, all the solution in the plate was aspirated using the multichannel pipette and added to the precipitation plate to terminate the reaction at that point in time. After all reactions had been terminated, the plates were shaken for ten minutes on a plate shaker at 600 rpm to precipitate the protein. The plate was centrifuged at 4° C. for 15 minutes at maximum rpm. 80 μL of supernatant was taken, 320 μL of pure water was added and mixed for LC-MS analysis.
In general terms: Liver microsomes are vesicles of endoplasmic reticulum, rich in cytochrome P450 enzymes.

Data set [2] is described as follows: Metabolic stability in liver microsomes, human. Type of data set: in vitro ADME. The protocol:
as §7

The nature of data set [3]: Metabolic stability in liver microsomes, rat. Type of data set: in vitro ADME. The method, then:
as §7, with “Microsomes” for “Test Example 3: Evaluation of the Metabolic Stability of Liver Microsomes (Mouse and Human) In Vitro Microsomes”

Data set [4] is described as follows: Metabolic stability in liver microsomes, dog. The class given is in vitro ADME. The method, then: as §7, with “Microsomes” for “Test Example 3: Evaluation of the Metabolic Stability of Liver Microsomes (Mouse and Human) In Vitro Microsomes”
Data set [5] is described as follows: Metabolic stability in liver microsomes, monkey. Type of data set: in vitro ADME. The protocol:
as §7, with “Microsomes” for “Test Example 3: Evaluation of the Metabolic Stability of Liver Microsomes (Mouse and Human) In Vitro Microsomes”

The next data set deals with Caco-2 cells. The data set can be described thus: Membrane permeability in Caco-2 model. Type of data set: in vitro ADME. The protocol:
(§8) Caco-2 cells were purchased from the American Model Tissue Cell Collection (Rockville, MD). The cell culture medium was modified Eagle's medium (MEM) containing 10% inactivated fetal bovine serum and 1% non-essential amino acids. […] The cells were incubated for 21-28 days after inoculation for transport experiments and the apparent permeability (Papp) of Lucifer Yellow was used to characterize and verify the compactness of the cell monolayer. […] After the incubation, dilute the samples on the apical side and basolateral side, and the concentrations of compounds on the apical and basolateral sides were detected by LC-MS/MS, and the concentrations of the compounds were quantified by standard curve.

Data set [6] concerns plasma protein. The data set can be described thus: Plasma protein binding (equilibrium dialysis), rat. Type of data set: in vitro ADME. The following applies: 1 μM, 5 h dialysis.
The subject of data set [7] is plasma protein. The data set can be described thus: Plasma protein binding (equilibrium dialysis), mouse. The following applies: mouse plasma, 1 μM, 5 h dialysis.
Protocol: Sample preparation: The compound was dissolved in DMSO to a stock solution of 10 mM, then the compound was diluted with PBS to a secondary stock solution of 0.02 mM, and then the above 0.02 mM was diluted to 1 μM using blank plasma, which was the sample to be incubated.
Dialysis set-up preparation: 400 μL of blank PBS was first added to the white wells of the equilibrated dialysis plate and 200 μL of the configured plasma sample was added to the red wells, and the dialysis plate was sealed with a sealing film.
Recovery plate preparation: Two 96-well deep-well plates, labelled T0 and T5, were prepared and all plasma samples were added at n=2. 300 μL of acetonitrile (Verapamil-HCl, 4 ng/mL) was added directly to the TO plate, followed by 50 μL of blank PBS mix well for 5 min and left to stand in a 4° C. refrigerator until the end of the incubation.
Experimental Operation: The dialysis device and the T5 plate were incubated together for 5 h in a microplate thermostatic shaker (37° C., using 300 rpm or minimum speed). At the end of the incubation, 300 μL of acetonitrile (Verapamil-HCl, 4 ng/mL) was added and 50 μL of PBS solution was added. At the end of the dialysis incubation, a new 96-well deep well plate was taken. Add 50 μL of plasma well sample to the corresponding position of the 96-well plate, 300 μL of acetonitrile and 50 μL of blank PBS; take 50 μL of buffer well sample to the corresponding position of the 96-well plate, then add 300 μL of acetonitrile and 50 μL of blank plasma. Add 300 μL of acetonitrile (Verapamil-HCl, 4 ng/mL) to the plasma-containing wells of the T5 plate, and then 50 μL of PBS solution was added. Shake for 5 min to fully precipitate the proteins and centrifuge at 20,000 g for 10 min at 4° C. Add 200 μL of supernatant to 200 μL of pure water, mix well and perform LC-MS/MS analysis.
• Plasma protein binding rate=[(Rpe−Rb)/Rpe]×100% • Recovery=[(Rpe+Rb)/R5 h]×100% • Stability=(R5/R0)×100%
• Rpe=ratio of plasma-side testing sample peak area to internal standard • Rb=ratio of buffer side testing sample peak area to internal standard • R5=ratio of incubator stability sample peak area to internal standard • R0=ratio of refrigerator stability sample peak area to internal standard
The next data set addresses hERG potassium channel (Homo sapiens (Human), UniProt Q12809). The data set can be described thus: hERG potassium channel inhibition, patch clamp in CHO hERG cells.
Data set [8] in a line: Membrane permeability in Caco-2 model. Type of data set: in vitro ADME. The following applies: human, Caco-2, pH 7.4. The protocol:
as §8

pIC50: −log10 of the molar value.

Sequence of Wee1 protein (P30291 whole entry): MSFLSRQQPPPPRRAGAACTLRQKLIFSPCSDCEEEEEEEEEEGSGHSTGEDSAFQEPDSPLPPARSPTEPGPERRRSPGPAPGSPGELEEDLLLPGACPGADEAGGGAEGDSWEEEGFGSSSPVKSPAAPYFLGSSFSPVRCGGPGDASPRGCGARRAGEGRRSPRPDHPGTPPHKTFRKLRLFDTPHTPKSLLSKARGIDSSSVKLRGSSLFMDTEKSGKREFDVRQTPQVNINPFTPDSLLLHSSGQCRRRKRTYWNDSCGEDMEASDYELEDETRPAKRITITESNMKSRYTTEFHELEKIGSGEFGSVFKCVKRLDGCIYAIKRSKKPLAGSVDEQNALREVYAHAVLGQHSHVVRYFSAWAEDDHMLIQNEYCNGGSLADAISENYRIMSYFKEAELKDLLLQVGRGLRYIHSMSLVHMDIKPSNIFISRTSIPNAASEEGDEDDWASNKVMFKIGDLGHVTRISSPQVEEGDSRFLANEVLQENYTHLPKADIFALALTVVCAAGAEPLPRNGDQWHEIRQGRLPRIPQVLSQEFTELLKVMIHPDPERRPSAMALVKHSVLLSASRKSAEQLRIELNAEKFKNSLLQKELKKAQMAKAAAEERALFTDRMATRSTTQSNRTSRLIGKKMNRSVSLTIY
Sequence of hERG potassium channel (Q12809 whole entry): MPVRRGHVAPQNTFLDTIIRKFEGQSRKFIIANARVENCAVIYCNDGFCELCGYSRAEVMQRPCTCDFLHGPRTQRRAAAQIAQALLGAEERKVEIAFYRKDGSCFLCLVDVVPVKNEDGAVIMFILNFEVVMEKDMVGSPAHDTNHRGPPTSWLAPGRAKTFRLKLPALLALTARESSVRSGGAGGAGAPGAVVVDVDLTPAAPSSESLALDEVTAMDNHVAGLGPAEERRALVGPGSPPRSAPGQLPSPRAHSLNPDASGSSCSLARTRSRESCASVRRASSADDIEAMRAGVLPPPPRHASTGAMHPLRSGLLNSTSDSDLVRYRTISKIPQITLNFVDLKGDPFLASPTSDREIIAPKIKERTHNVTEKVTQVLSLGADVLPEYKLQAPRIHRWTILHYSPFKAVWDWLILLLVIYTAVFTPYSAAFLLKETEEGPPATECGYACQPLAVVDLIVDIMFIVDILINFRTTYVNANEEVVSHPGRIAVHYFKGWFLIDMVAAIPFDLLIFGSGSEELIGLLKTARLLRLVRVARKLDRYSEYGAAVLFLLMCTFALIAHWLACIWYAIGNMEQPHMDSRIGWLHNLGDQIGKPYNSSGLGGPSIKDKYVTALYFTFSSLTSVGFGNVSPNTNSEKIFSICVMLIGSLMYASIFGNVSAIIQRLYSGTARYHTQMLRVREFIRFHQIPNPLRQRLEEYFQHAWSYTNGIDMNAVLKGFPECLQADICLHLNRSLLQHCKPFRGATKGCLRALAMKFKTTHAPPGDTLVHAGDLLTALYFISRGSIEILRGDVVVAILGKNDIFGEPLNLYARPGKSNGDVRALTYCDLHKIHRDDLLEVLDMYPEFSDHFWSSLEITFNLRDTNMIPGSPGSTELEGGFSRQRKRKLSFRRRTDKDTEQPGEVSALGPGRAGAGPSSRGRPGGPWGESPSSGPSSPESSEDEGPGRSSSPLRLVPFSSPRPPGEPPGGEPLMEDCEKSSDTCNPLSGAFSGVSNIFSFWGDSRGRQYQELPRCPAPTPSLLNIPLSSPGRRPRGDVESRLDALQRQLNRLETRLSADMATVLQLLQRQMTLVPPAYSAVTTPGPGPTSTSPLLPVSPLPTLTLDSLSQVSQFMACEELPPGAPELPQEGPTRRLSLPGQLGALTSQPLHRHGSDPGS

By pIC50 is commonly meant the negative decadic logarithm of the IC50, by convention in mol/L. Turning to `C=CCn1c(=O)c2cnc(Nc3ccc(N4CCN(C)CC4)cc3)nc2n1-c1ccc2c(n1)[C@H](O)C1(CC2)CC1` (single isomer, unassigned) [Compound 4b], the negative-log IC50 (pIC50) on Wee1 protein is not below 8.30; in the data set on BxPC3 cells, 6.00 to 7.00; in the data set on HT-29 cells, 6.00 to 7.00; in the data set with OVCAR-3 cells it was 6.00 to 7.00; with HUVEC cells, less than 5.00; in the data set on HK2 cells, 5.89. Also, the “T1/2 liver microsomes Mouse” value in data set [1] amounted to 72.82 min. Also, the “T1/2 liver microsomes Human” value in [2] is listed as 44.82 min. Further, in [3], the “T1/2 liver microsomes Rat” value is given as more than 120 min. Moreover, the “T1/2 liver microsomes Dog” value in data set [4] is 41.74 min. Besides, the “T1/2 liver microsomes Monkey” value in [5] worked out at 22.84 min. In addition, in the data set on Caco-2 cells (Caco2), the “Efflux Ration” value is on record as 14.03. Moreover, the “Papp A to B” value in the data set with Caco-2 cells (Caco2, 10 μM, 90 min) was 0.94 10^−6 cm/s. Besides, in the data set on Caco-2 cells (Caco2, 10 μM, 90 min), the “Papp B to A” value is recorded as 13.19 10^−6 cm/s. The “Plasma Protein binding (PPB) Rat” value in the data set with plasma protein [6] turned out to be 77.45%. The “Plasma Protein binding (PPB) Mouse” value with plasma protein [7] was determined as 87.71%. For the same molecule, the “hERG Inhibition” value came to 23.84 ± 4.39% on hERG potassium channel (test concentration 5 μM) and 42.42 ± 5.58% at hERG potassium channel (test concentration 20 μM).

As to `[2H][C@]1(O)c2nc(-n3c4nc(Nc5ccc(N6CCC7(CCN(C)CC7)CC6)c(C)c5)ncc4c(=O)n3CC=C)ccc2CCC12CC2` [Compound 61b], the “Plasma Protein binding (PPB) Rat” value in the data set with plasma protein [6] stood at 93.61%. For the same molecule, in the data set with plasma protein [7], the “Plasma Protein binding (PPB) Mouse” value amounted to 98.46%.

A word on the Papp A→B: it is how fast a substance crosses the layer from the apical side. Usually Papp B→A stands for the apparent permeability from the basolateral to the apical side of a cell layer. In data set [8] (Caco2, 10 μM, 90 min), `CC(C)NCC(O)COc1cccc2ccccc12` (stereo not shown) [Propranolol] registered a Papp A→B at 90 min, 10 µM of 14.7 ×10⁻⁶ cm/s and a Papp B→A at 90 min, 10 µM of 13 ×10⁻⁶ cm/s. In data set [8] (Caco2, read-out: Efflux Ration), the efflux ratio at 90 min, 10 µM was 0.88.

As to `C=CCn1c(=O)c2cnc(Nc3ccc(N4C[C@H]5CN(C)C[C@H]5C4)cc3)nc2n1-c1ccc2c(n1)C(O)(CC)C1(CC1)C2` (stereo partly shown) [Compound 28], the pIC50 at Wee1 protein is not below 8.30; with BxPC3 cells, 6.00 to 7.00; in the data set on HT-29 cells, 6.00 to 7.00; with OVCAR-3 cells, 6.00 to 7.00; with HUVEC cells, less than 5.00; with HK2 cells, 5.92. In addition, in data set [1], the “T1/2 liver microsomes Mouse” value turned out to be 51.65 min. The “T1/2 liver microsomes Human” value in data set [2] came out at 29.95 min. Also, the “T1/2 liver microsomes Rat” value in data set [3] is 30.9 min. In addition, the “T1/2 liver microsomes Dog” value in [4] is given as 38.2 min. Moreover, in [5], the “T1/2 liver microsomes Monkey” value is recorded as 17.74 min. In addition, in the data set with plasma protein [6], the “Plasma Protein binding (PPB) Rat” value amounted to 86.08%. Further, in the data set with plasma protein [7], the “Plasma Protein binding (PPB) Mouse” value was 92.29%.

On to `C=CCn1c(=O)c2cnc(Nc3ccc(N4CCC(N(C)C)CC4)c(C)c3)nc2n1-c1ccc2c(n1)[C@@](C)(O)C1(CC2)CC1` (single isomer, unassigned) [Compound 52a], for which the pIC50 in the data set with BxPC3 cells was 6.00 to 7.00; with HT-29 cells, 6.00 to 7.00; in the data set on OVCAR-3 cells it was 6.00 to 7.00; in the data set on HUVEC cells it was 5.42; in the data set on HK2 cells, 6.32. Besides, the “T1/2 liver microsomes Mouse” value in [1] stood at 96.19 min. Moreover, in data set [2], the “T1/2 liver microsomes Human” value amounted to 26.24 min. Further, the “T1/2 liver microsomes Rat” value in data set [3] turned out to be 31.42 min. In addition, the “T1/2 liver microsomes Dog” value in [4] stood at 22.8 min. The “T1/2 liver microsomes Monkey” value in data set [5] was 14.22 min.
